What all share (type): physicochemical
A short description of series [1]: Transformation of zolmitriptan crystal forms by heating in a conventional oven, form determined by XRD. The following applies: for Crystal form after heating: about 1.5 to 2 hours, conventional oven, XRD. The protocol:
Zolmitriptan (0.5 g) crystalline forms were heated in a conventional oven for a period of about 1.5 to 2 hours at different temperatures. The crystal form of the samples was determined by XRD before and after heating.

A short description of series [2]: Transformation by pressing (crystal form before and after pressing). The following applies: for Crystal Form after pressing: 100 mg pressed with approximately 1300 psi during 2 minutes.
The nature of series [3]: Transformation by slurry in other solvents (n-hexane, toluene, water) and drying, form determined by XRD. From the text:
Similarly to example 6 Zolmitriptan samples were slurried from other solvents or solvent systems after dissolution and precipitation from a specific solvent.

Series [4] is described as follows: Polymorphic stability when maintained at room temperature.
The mark [5] stands for this setting: Toluene, dried 63 °C under reduced pressure.
Where [6] appears, read: Water, dried 63 °C under reduced pressure.
Setting [7] is: immersed in 10 v/w Toluene, filtered, sucked ½ hour on Buchner.
Setting [8] is: immersed in 10 v/w Water, filtered, sucked ½ hour on Buchner.
[9] abbreviates: immersed in 10 v/w n-Hexane, filtered, sucked ½ hour on Buchner.
The mark [10] stands for this setting: n-Hexane, dried 63 °C under reduced pressure.

Data on five compounds can be found in patent US20060211751A1, “Zolmitriptan crystal forms” (priority 2004, published 2006).

On to `CN(C)CCc1c[nH]c2ccc(C[C@H]3COC(=O)N3)cc12` [Amorphous form], for which the “stability upon heating (conversion to Form A)” value in series [1] (heated at about 60 °C to about 110 °C for about 2 hours) is “does not convert to Form A”. In addition, the “Crystal form after heating” value in series [1] (heating temp. 60 °C), in series [1] (heating temp. 100 °C) and in series [1] (heating temp. 110 °C) was “Amorph” in each case. Further, the “Crystal Form after pressing” value in series [2] is “Amorphous Form”. Besides, the “transformation to other crystal form on pressing” value (shortened to “transformation”) in series [2] is reported as “not transform to other crystal form”.

In the case of `CN(C)CCc1c[nH]c2ccc(C[C@H]3COC(=O)N3)cc12` [Form L], the “Crystal form after heating” value in series [1] (heating temp. 90 °C) is on record as “A +”. For the same compound, in series [2], the “Crystal Form after pressing” value is given as “Form L” and the “transformation” value is listed as “not transform to other crystal form”.

Take `CN(C)CCc1c[nH]c2ccc(C[C@H]3COC(=O)N3)cc12` [Form N]: the “XRD sample (form after treatment)” value in series [3] (setting [5]) is listed as “Form A”; in series [3] (setting [6]), “Form A”; in series [3] (setting [7]), “Form K”; in series [3] (setting [8]) it was “Form A”; in series [3] (setting [9]), “Form D”; in series [3] (setting [10]), “Form A”. Also, the “Crystal form after heating” value in series [1] (heating temp. 60 °C) is on record as “N + A”. Besides, in series [2], the “Crystal Form after pressing” value is given as “Form N”. In addition, the “transformation” value in series [2] is “not transform to other crystal form”.

Regarding `CN(C)CCc1c[nH]c2ccc(C[C@H]3COC(=O)N3)cc12` [Form Q], the “Crystal form after heating” value in series [1] (heating temp. 60 °C) is reported as “A +”.

For the compound `CN(C)CCc1c[nH]c2ccc(C[C@H]3COC(=O)N3)cc12` [Form S], the “polymorphic stability (conversion to Form A)” value in series [4] is listed as “do not convert to Form A”. The “XRD sample (form after treatment)” value in series [3] (setting [5]) is “Form A + ˜10% K”; in series [3] (setting [6]), “Form A”; in series [3] (setting [7]), “Form K”; in series [3] (setting [8]) it was “Form A + ˜10% D”; in series [3] (setting [9]), “Form D”; in series [3] (setting [10]), “Form A + ˜20% D”. Besides, the “Crystal Form after pressing” value in series [2] is on record as “Form S”. For the same compound, the “transformation” value in series [2] was “not transform to other crystal form”.
